Drawing on patent US20240226115A1, “AXL INHIBITOR COMPOUNDS” (ARCUS BIOSCIENCES, INC., priority 2021, published 2024), this text covers IC50 for 22 molecules.

pIC50: −log10 of the molar value.

The target of this test is T1, Axl (Homo sapiens, UniProt P30530).
T1 sequence (P30530 26-894): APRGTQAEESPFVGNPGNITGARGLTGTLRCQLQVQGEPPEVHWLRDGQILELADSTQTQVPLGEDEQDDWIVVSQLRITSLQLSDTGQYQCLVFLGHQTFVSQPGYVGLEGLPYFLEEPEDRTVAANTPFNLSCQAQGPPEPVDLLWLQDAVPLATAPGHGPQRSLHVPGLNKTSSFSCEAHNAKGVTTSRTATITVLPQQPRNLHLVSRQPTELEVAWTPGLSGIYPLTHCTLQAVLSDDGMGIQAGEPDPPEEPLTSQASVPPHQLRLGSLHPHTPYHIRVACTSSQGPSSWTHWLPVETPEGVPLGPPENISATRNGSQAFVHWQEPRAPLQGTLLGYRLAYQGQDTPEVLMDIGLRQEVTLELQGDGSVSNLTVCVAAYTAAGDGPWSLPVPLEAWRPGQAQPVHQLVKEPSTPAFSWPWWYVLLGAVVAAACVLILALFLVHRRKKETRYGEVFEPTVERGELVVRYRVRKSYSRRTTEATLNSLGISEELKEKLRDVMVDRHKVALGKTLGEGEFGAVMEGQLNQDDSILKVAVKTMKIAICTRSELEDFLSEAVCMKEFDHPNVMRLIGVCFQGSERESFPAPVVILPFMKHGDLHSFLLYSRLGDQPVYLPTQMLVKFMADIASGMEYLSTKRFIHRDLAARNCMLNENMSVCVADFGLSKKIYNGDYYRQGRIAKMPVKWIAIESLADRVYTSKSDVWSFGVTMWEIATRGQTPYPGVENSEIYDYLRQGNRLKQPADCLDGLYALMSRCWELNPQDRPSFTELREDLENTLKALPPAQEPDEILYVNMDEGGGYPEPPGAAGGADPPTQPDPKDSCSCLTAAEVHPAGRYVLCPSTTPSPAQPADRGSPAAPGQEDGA
Put plainly: Axl NanoBRET intracellular kinase assay (Cell Binding). Set-up: host or cells: HEK-293. Conditions: HEK-293 cells transfected with Axl-NanoLuc fusion vector; displacement of K-5 NanoBRET tracer. In short, it runs like this:
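BRET ratio (610 nm/450 nm) decrease from K-5 tracer displacement gave binding; IC50 by 4-parameter non-linear regression of percent activity. Live HEK-293 cells expressed transiently transfected Axl-NanoLuc. Compound 1 h, then 0.35 μM tracer 2 h, both 37 °C, 5% CO2.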
A general note: BRET reads energy transfer from a luciferase to a nearby fluorophore.
As a reminder, the pIC50 is the negative decadic logarithm of the IC50, by convention in mol/L. As for `O=C1NCCOc2cc(-c3n[nH]c4ncc(-c5ccc6c(n5)CCC(N5CCCC5)CC6)cc34)ccc21` (stereo not shown) [Example 63, 8-{5-[7-(Pyrrolidin-1-yl)-5H,6H,7H,8H,9H-cyclohepta[b]pyridin-2-yl]-1H-pyrazolo[3,4-b]pyridin-3-yl}-2,3,4,5-tetrahydro-1,4-benzoxazepin-5-one], the pIC50 is 6.00 to 7.00.
Next, `CC1(O)CCOc2cc(-c3n[nH]c4ncc(-c5ccc6c(c5)CCN(C5CCCC5)CC6)cc34)ccc21` (stereo not shown) [Example 26, 7-[5-(3-Cyclopentyl-2,3,4,5-tetrahydro-1H-3-benzazepin-7-yl)-1H-pyrazolo[3,4-b]pyridin-3-yl]-4-methyl-3,4-dihydro-2H-1-benzopyran-4-ol]: 6.00 to 7.00; `C[C@H]1CCCN1C1CCc2ccc(-c3cnc4[nH]nc(-c5ccc6c(c5)OCCNC6=O)c4c3)cc2CC1` (stereo partly drawn) [Example 43, 8-(5-{7-[(2S)-2-Methylpyrrolidin-1-yl]-6,7,8,9-tetrahydro-5H-benzo[7]annulen-2-yl}-1H-pyrazolo[3,4-b]pyridin-3-yl)-2,3,4,5-tetrahydro-1,4-benzoxazepin-5-one]: greater than 7.00.
The molecule `O=C1NCCOc2cc(-c3n[nH]c4ncc(-c5ccc6c(c5)CCC(N5CC[C@@H](O)C5)CC6)cc34)ccc21` (stereo partly drawn) [Example 51, 8-(5-(7-((R)-3-Hydroxypyrrolidin-1-yl)-6,7,8,9-tetrahydro-5H-benzo[7]annulen-2-yl)-1H-pyrazolo[3,4-b]pyridin-3-yl)-3,4-dihydrobenzo[f][1,4]oxazepin-5(2H)-one] gave a pIC50 of 6.00 to 7.00.
Under `O=C1NCCOc2cc(-c3n[nH]c4ncc(-c5ccc6c(c5)CCC(NC5CCCC5)CC6)cc34)ccc21` (stereo not shown) [Example 42, 8-{5-[7-(Cyclopentylamino)-6,7,8,9-tetrahydro-5H-benzo[7]annulen-2-yl]-1H-pyrazolo[3,4-b]pyridin-3-yl}-2,3,4,5-tetrahydro-1,4-benzoxazepin-5-one] stands greater than 7.00; under `C[C@@H]1CCCN1C1CCc2ccc(-c3cnc4[nH]nc(-c5ccc6c(c5)OCCC6(C)O)c4c3)cc2CC1` (stereo partly drawn) [Example 29, 4-Methyl-7-(5-{7-[(2R)-2-Methylpyrrolidin-1-yl]-6,7,8,9-tetrahydro-5H-benzo[7]annulen-2-yl}-1H-pyrazolo[3,4-b]pyridin-3-yl)-3,4-dihydro-2H-1-benzopyran-4-ol], greater than 7.00.
Under `C[C@@H]1CCCN1C1CCc2cc(F)c(-c3cnc4[nH]nc(-c5ccc6c(c5)OCCNC6=O)c4c3)cc2CC1` (stereo partly drawn) [Example 58, 8-(5-{3-Fluoro-7-[(2R)-2-methylpyrrolidin-1-yl]-6,7,8,9-tetrahydro-5H-benzo[7]annulen-2-yl}-1H-pyrazolo[3,4-b]pyridin-3-yl)-2,3,4,5-tetrahydro-1,4-benzoxazepin-5-one] stands greater than 7.00; under `C[C@@H]1CCCN1C1CCc2ccc(-c3cnc4[nH]nc(-c5cc6c(cc5F)C(=O)NCCO6)c4c3)cc2CC1` (stereo partly drawn) [Example 61, 7-Fluoro-8-(5-{7-[(2R)-2-methylpyrrolidin-1-yl]-6,7,8,9-tetrahydro-5H-benzo[7]annulen-2-yl}-1H-pyrazolo[3,4-b]pyridin-3-yl)-2,3,4,5-tetrahydro-1,4-benzoxazepin-5-one], greater than 7.00; under `C[C@@H]1CCCN1C1CCc2ccc(-c3cnc4[nH]nc(-c5cc(F)c6c(c5)OCCNC6=O)c4c3)cc2CC1` (stereo partly drawn) [Example 6, 6-Fluoro-8-(5-{7-[(2R)-2-methylpyrrolidin-1-yl]-6,7,8,9-tetrahydro-5H-benzo[7]annulen-2-yl}-1H-pyrazolo[3,4-b]pyridin-3-yl)-2,3,4,5-tetrahydro-1,4-benzoxazepin-5-one], greater than 7.00.
As to `O=C1NCCOc2cc(-c3n[nH]c4ncc(-c5ccc6c(c5)CC(N5CCCC5)CC6)cc34)ccc21` (stereo not shown) [Example 3, 8-{5-[7-(Pyrrolidin-1-yl)-5,6,7,8-tetrahydronaphthalen-2-yl]-1H-pyrazolo[3,4-b]pyridin-3-yl}-2,3,4,5-tetrahydro-1,4-benzoxazepin-5-one], the pIC50 is 6.00 to 7.00.
Under `O=C1NCCOc2cc(-c3n[nH]c4ncc(-c5ccc6c(c5)CCN(C5COC5)CC6)cc34)ccc21` [Example 11, 8-(5-(3-(Oxetan-3-yl)-2,3,4,5-tetrahydro-1H-benzo[d]azepin-7-yl)-1H-pyrazolo[3,4-b]pyridin-3-yl)-3,4-dihydrobenzo[f][1,4]oxazepin-5(2H)-one] stands 6.00 to 7.00; under `O=C1NCCOc2cc(-c3n[nH]c4ncc(-c5ccc6c(c5)CCC(N[C@H]5CCOC5)CC6)cc34)ccc21` (stereo partly drawn) [Example 45, 8-[5-(7-{[(3S)—Oxolan-3-yl]amino}-6,7,8,9-tetrahydro-5H-benzo[7]annulen-2-yl)-1H-pyrazolo[3,4-b]pyridin-3-yl]-2,3,4,5-tetrahydro-1,4-benzoxazepin-5-one], greater than 7.00; under `O=C1NCCOc2cc(-c3n[nH]c4ncc(-c5ccc6c(c5)CCNCC6)cc34)ccc21` [Example 53, 8-(5-(2,3,4,5-Tetrahydro-1H-benzo[d]azepin-7-yl)-1H-pyrazolo[3,4-b]pyridin-3-yl)-3,4-dihydrobenzo[f][1,4]oxazepin-5(2H)-one], 6.00 to 7.00.
In the case of `C[C@@H]1CCCN1C1CCc2ccc(-c3cnc4[nH]nc(-c5ccc6c(c5F)OCCNC6=O)c4c3)cc2CC1` (stereo partly drawn) [Example 60, 9-Fluoro-8-(5-{7-[(2R)-2-methylpyrrolidin-1-yl]-6,7,8,9-tetrahydro-5H-benzo[7]annulen-2-yl}-1H-pyrazolo[3,4-b]pyridin-3-yl)-2,3,4,5-tetrahydro-1,4-benzoxazepin-5-one], the pIC50 is greater than 7.00.
Next, `CC(C)(O)C(=O)N1CCc2ccc(-c3cnc4[nH]nc(-c5ccc6c(c5)OCCNC6=O)c4c3)cc2CC1` [Example 19, 8-(5-(3-(2-Hydroxy-2-methylpropanoyl)-2,3,4,5-tetrahydro-1H-benzo[d]azepin-7-yl)-1H-pyrazolo[3,4-b]pyridin-3-yl)-3,4-dihydrobenzo[f][1,4]oxazepin-5(2H)-one]: 6.00 to 7.00; `O=C1NCCOc2cc(-c3n[nH]c4ncc(-c5ccc6c(c5)CCN(C5COC5)C6)cc34)ccc21` [Example 12, 8-(5-(2-(Oxetan-3-yl)-1,2,3,4-tetrahydroisoquinolin-6-yl)-1H-pyrazolo[3,4-b]pyridin-3-yl)-3,4-dihydrobenzo[f][1,4]oxazepin-5(2H)-one]: 6.00 to 7.00; `CC[C@@H]1CCCN1C1CCc2ccc(-c3cnc4[nH]nc(-c5ccc6c(c5)OCCNC6=O)c4c3)cc2CC1` (stereo partly drawn) [Example 25, 8-(5-{7-[(2R)-2-Ethylpyrrolidin-1-yl]-6,7,8,9-tetrahydro-5H-benzo[7]annulen-2-yl}-1H-pyrazolo[3,4-b]pyridin-3-yl)-2,3,4,5-tetrahydro-1,4-benzoxazepin-5-one]: greater than 7.00.
Next, `O=C1NCCOc2cc(-c3n[nH]c4ncc(-c5ccc6c(c5)CCN(C5CC5)CC6)cc34)ccc21` [Example 20, 8-(5-(3-Cyclopropyl-2,3,4,5-tetrahydro-1H-benzo[d]azepin-7-yl)-1H-pyrazolo[3,4-b]pyridin-3-yl)-3,4-dihydrobenzo[f][1,4]oxazepin-5(2H)-one]: 6.00 to 7.00.
Next, `COCCN1CCc2ccc(-c3cnc4[nH]nc(-c5ccc6c(c5)OCCNC6=O)c4c3)cc2CC1` [Example 15, 8-(5-(3-(2-Methoxyethyl)-2,3,4,5-tetrahydro-1H-benzo[d]azepin-7-yl)-1H-pyrazolo[3,4-b]pyridin-3-yl)-3,4-dihydrobenzo[f][1,4]oxazepin-5(2H)-one]: greater than 7.00; `C[C@@H]1CCCN1C1(C)CCc2ccc(-c3cnc4[nH]nc(-c5ccc6c(c5)OCCNC6=O)c4c3)cc2CC1` (stereo partly drawn) [Example 23, 8-(5-{7-Methyl-7-[(2R)-2-methylpyrrolidin-1-yl]-6,7,8,9-tetrahydro-5H-benzo[7]annulen-2-yl}-1H-pyrazolo[3,4-b]pyridin-3-yl)-2,3,4,5-tetrahydro-1,4-benzoxazepin-5-one]: greater than 7.00; `C[C@@H]1CCCN1C1CCc2cc(-c3cnc4[nH]nc(-c5ccc6c(c5)OCCNC6=O)c4c3)cc(Cl)c2CC1` (stereo partly drawn) [Example 65, 8-(5-{4-Chloro-7-[(2R)-2-methylpyrrolidin-1-yl]-6,7,8,9-tetrahydro-5H-benzo[7]annulen-2-yl}-1H-pyrazolo[3,4-b]pyridin-3-yl)-2,3,4,5-tetrahydro-1,4-benzoxazepin-5-one]: greater than 7.00.
For the molecule `O=C1NCCOc2cc(-c3n[nH]c4ncc(-c5ccc6c(c5)CCNC6)cc34)ccc21` [Example 54, 8-(5-(1,2,3,4-Tetrahydroisoquinolin-6-yl)-1H-pyrazolo[3,4-b]pyridin-3-yl)-3,4-dihydrobenzo[f][1,4]oxazepin-5(2H)-one], the pIC50 is 6.00 to 7.00.
